From PubChem BioAssay AID1259407 (Chemical Carcinogenesis Research Information System (CCRIS), 2018)
Calls of active or inactive are those of the source. No rule for the calls is given here.

Test system: CCRIS mutagenicity, Ames/micronucleus/aberration tests
Test: CCRIS mutagenicity studies
[1] = End Point: IN VITRO CHROMOSOMAL ABERRATIONS, Test System: CHO-LB CELLS, Metabolic Activation: NONE
[2] = End Point: IN VITRO CHROMOSOMAL ABERRATIONS, Test System: CHO-LB CELLS, Metabolic Activation: RAT, LIVER, S-9, AROCLOR 1254
[3] = Test System: AMES SALMONELLA TYPHIMURIUM, Strain/Indicator: TA98, Metabolic Activation: HAMSTER, LIVER, S-9, AROCLOR 1254, Method: PREINCUBATION
[4] = Test System: AMES SALMONELLA TYPHIMURIUM, Strain/Indicator: TA98, Metabolic Activation: NONE, Method: PREINCUBATION
[5] = Test System: AMES SALMONELLA TYPHIMURIUM, Strain/Indicator: TA98, Metabolic Activation: NONE, Method: STANDARD PLATE
[6] = Test System: AMES SALMONELLA TYPHIMURIUM, Strain/Indicator: TA98, Metabolic Activation: RAT, LIVER, S-9, AROCLOR 1254, Method: PREINCUBATION
[7] = Test System: AMES SALMONELLA TYPHIMURIUM, Strain/Indicator: TA100, Metabolic Activation: HAMSTER, LIVER, S-9, AROCLOR 1254, Method: PREINCUBATION
[8] = Test System: AMES SALMONELLA TYPHIMURIUM, Strain/Indicator: TA100, Metabolic Activation: NONE, Method: PREINCUBATION
[9] = Test System: AMES SALMONELLA TYPHIMURIUM, Strain/Indicator: TA100, Metabolic Activation: NONE, Method: STANDARD PLATE
[10] = Test System: AMES SALMONELLA TYPHIMURIUM, Strain/Indicator: TA100, Metabolic Activation: RAT, LIVER, S-9, AROCLOR 1254, Method: PREINCUBATION
[11] = Test System: AMES SALMONELLA TYPHIMURIUM, Strain/Indicator: TA1535, Metabolic Activation: HAMSTER, LIVER, S-9, AROCLOR 1254, Method: PREINCUBATION
[12] = Test System: AMES SALMONELLA TYPHIMURIUM, Strain/Indicator: TA1535, Metabolic Activation: NONE, Method: PREINCUBATION
[13] = Test System: AMES SALMONELLA TYPHIMURIUM, Strain/Indicator: TA1535, Metabolic Activation: RAT, LIVER, S-9, AROCLOR 1254, Method: PREINCUBATION
[14] = Test System: AMES SALMONELLA TYPHIMURIUM, Strain/Indicator: TA1537, Metabolic Activation: HAMSTER, LIVER, S-9, AROCLOR 1254, Method: PREINCUBATION
[15] = Test System: AMES SALMONELLA TYPHIMURIUM, Strain/Indicator: TA1537, Metabolic Activation: NONE, Method: PREINCUBATION
[16] = Test System: AMES SALMONELLA TYPHIMURIUM, Strain/Indicator: TA1537, Metabolic Activation: RAT, LIVER, S-9, AROCLOR 1254, Method: PREINCUBATION
[17] = Test System: AMES SALMONELLA TYPHIMURIUM, Strain/Indicator: TA98, Metabolic Activation: HAMSTER, LIVER, S-9, AROCLOR 1254 (10%), Method: PREINCUBATION
[18] = Test System: AMES SALMONELLA TYPHIMURIUM, Strain/Indicator: TA98, Metabolic Activation: RAT, LIVER, S-9, AROCLOR 1254 (10%), Method: PREINCUBATION
[19] = Test System: AMES SALMONELLA TYPHIMURIUM, Strain/Indicator: TA100, Metabolic Activation: HAMSTER, LIVER, S-9, AROCLOR 1254 (10%), Method: PREINCUBATION
[20] = Test System: AMES SALMONELLA TYPHIMURIUM, Strain/Indicator: TA100, Metabolic Activation: RAT, LIVER, S-9, AROCLOR 1254 (10%), Method: PREINCUBATION
[21] = Test System: AMES SALMONELLA TYPHIMURIUM, Strain/Indicator: TA1535, Metabolic Activation: HAMSTER, LIVER, S-9, AROCLOR 1254 (10%), Method: PREINCUBATION
[22] = Test System: AMES SALMONELLA TYPHIMURIUM, Strain/Indicator: TA1535, Metabolic Activation: RAT, LIVER, S-9, AROCLOR 1254 (10%), Method: PREINCUBATION
[23] = Test System: AMES SALMONELLA TYPHIMURIUM, Strain/Indicator: TA1537, Metabolic Activation: HAMSTER, LIVER, S-9, AROCLOR 1254 (10%), Method: PREINCUBATION
[24] = Test System: AMES SALMONELLA TYPHIMURIUM, Strain/Indicator: TA1537, Metabolic Activation: RAT, LIVER, S-9, AROCLOR 1254 (10%), Method: PREINCUBATION
[25] = Test System: AMES SALMONELLA TYPHIMURIUM, Strain/Indicator: TA100, Metabolic Activation: RAT, LIVER, S-9, AROCLOR 1254, Method: STANDARD PLATE

Q: `Clc1ccccc1Cl` was tested. Which mutagenic call [1] did it give?
A: inactive; negative

Q: And the mutagenic call [2]?
A: inactive; negative

Q: What about the mutagenic call [3] of the same compound?
A: inactive; negative

Q: And the mutagenic call [4]?
A: inactive; negative

Q: And the mutagenic call [5]?
A: inactive; negative

Q: And the mutagenic call [6]?
A: inactive; negative

Q: And the mutagenic call (Test System: AMES SALMONELLA TYPHIMURIUM, Strain/Indicator: TA98, Metabolic Activation: RAT, LIVER, S-9, AROCLOR, Method: STANDARD PLATE)?
A: inactive; negative

Q: And the mutagenic call [7]?
A: inactive; negative

Q: What about the mutagenic call [8] of the same compound?
A: inactive; negative

Q: And the mutagenic call [9]?
A: inactive; negative

Q: And the mutagenic call [10]?
A: inactive; negative

Q: What about the mutagenic call (Test System: AMES SALMONELLA TYPHIMURIUM, Strain/Indicator: TA100, Metabolic Activation: RAT, LIVER, S-9, AROCLOR, Method: STANDARD PLATE) of the same compound?
A: inactive; negative

Q: And the mutagenic call [11]?
A: inactive; negative

Q: What about the mutagenic call [12] of the same compound?
A: inactive; negative

Q: And the mutagenic call [13]?
A: inactive; negative

Q: And the mutagenic call [14]?
A: inactive; negative

Q: What about the mutagenic call [15] of the same compound?
A: inactive; negative

Q: What about the mutagenic call [16] of the same compound?
A: inactive; negative

Q: What about the mutagenic call (Test System: AMES SALMONELLA TYPHIMURIUM, Strain/Indicator: UTH8413, Metabolic Activation: NONE, Method: STANDARD PLATE) of the same compound?
A: inactive; negative

Q: And the mutagenic call (Test System: AMES SALMONELLA TYPHIMURIUM, Strain/Indicator: UTH8413, Metabolic Activation: RAT, LIVER, S-9, AROCLOR, Method: STANDARD PLATE)?
A: inactive; negative

Q: And the mutagenic call (Test System: AMES SALMONELLA TYPHIMURIUM, Strain/Indicator: UTH8414, Metabolic Activation: NONE, Method: STANDARD PLATE)?
A: inactive; negative

Q: What about the mutagenic call (Test System: AMES SALMONELLA TYPHIMURIUM, Strain/Indicator: UTH8414, Metabolic Activation: RAT, LIVER, S-9, AROCLOR, Method: STANDARD PLATE) of the same compound?
A: inactive; negative

Q: How did the mutagenic call [1] turn out when `Clc1cc(Cl)c(Cl)c(Cl)c1` was run?
A: inactive; negative

Q: What about the mutagenic call [2] of the same compound?
A: inactive; negative

Q: And the mutagenic call [3]?
A: inactive; negative

Q: And the mutagenic call [4]?
A: inactive; negative

Q: What about the mutagenic call [6] of the same compound?
A: inactive; negative

Q: What about the mutagenic call [7] of the same compound?
A: inactive; negative

Q: And the mutagenic call [8]?
A: inactive; negative

Q: And the mutagenic call [10]?
A: inactive; negative

Q: And the mutagenic call [11]?
A: inactive; negative

Q: And the mutagenic call [12]?
A: inactive; negative

Q: What about the mutagenic call [13] of the same compound?
A: inactive; negative

Q: What about the mutagenic call [14] of the same compound?
A: inactive; negative

Q: What about the mutagenic call [15] of the same compound?
A: inactive; negative

Q: What about the mutagenic call [16] of the same compound?
A: inactive; negative

Q: `CC(C)CC(C)N` (configuration not stated) was tested. Which mutagenic call [17] did it give?
A: inactive; negative

Q: What about the mutagenic call [4] of the same compound?
A: inactive; negative

Q: And the mutagenic call [18]?
A: inactive; negative

Q: What about the mutagenic call [19] of the same compound?
A: inactive; negative

Q: What about the mutagenic call [8] of the same compound?
A: inactive; negative

Q: And the mutagenic call [20]?
A: inactive; negative

Q: What about the mutagenic call [21] of the same compound?
A: inactive; negative

Q: What about the mutagenic call [12] of the same compound?
A: inactive; negative

Q: And the mutagenic call [22]?
A: inactive; negative

Q: What about the mutagenic call [23] of the same compound?
A: inactive; negative

Q: And the mutagenic call [15]?
A: inactive; negative

Q: And the mutagenic call [24]?
A: inactive; negative

Q: `CC(C)NNC(=O)c1ccncc1` was tested. Which mutagenic call [5] did it give?
A: inactive; negative

Q: What about the mutagenic call (Test System: AMES SALMONELLA TYPHIMURIUM, Strain/Indicator: TA98, Metabolic Activation: RAT, LIVER, S-9, AROCLOR 1254, Method: STANDARD PLATE) of the same compound?
A: inactive; negative

Q: What about the mutagenic call [9] of the same compound?
A: inactive; negative

Q: And the mutagenic call [25]?
A: inactive; negative

Q: And the mutagenic call (Test System: AMES SALMONELLA TYPHIMURIUM, Strain/Indicator: TA1535, Metabolic Activation: NONE, Method: STANDARD PLATE)?
A: inactive; negative

Q: And the mutagenic call (Test System: AMES SALMONELLA TYPHIMURIUM, Strain/Indicator: TA1535, Metabolic Activation: RAT, LIVER, S-9, AROCLOR 1254, Method: STANDARD PLATE)?
A: inactive; negative

Q: What about the mutagenic call (Test System: AMES SALMONELLA TYPHIMURIUM, Strain/Indicator: TA1537, Metabolic Activation: NONE, Method: STANDARD PLATE) of the same compound?
A: inactive; negative

Q: What about the mutagenic call (Test System: AMES SALMONELLA TYPHIMURIUM, Strain/Indicator: TA1537, Metabolic Activation: RAT, LIVER, S-9, AROCLOR 1254, Method: STANDARD PLATE) of the same compound?
A: inactive; negative

Q: Which results are given for `CN(C)CCOC(C)(c1ccccc1)c1ccccn1` (configuration not stated)?
A: mutagenic call [17]: inactive; negative; mutagenic call [4]: inactive; negative; mutagenic call [18]: inactive; negative; mutagenic call [19]: inactive; negative; mutagenic call [8]: inactive; negative; mutagenic call [20]: inactive; negative; mutagenic call [21]: inactive; negative; mutagenic call [12]: inactive; negative; mutagenic call [22]: inactive; negative; mutagenic call [23]: inactive; negative; mutagenic call [15]: inactive; negative; mutagenic call [24]: inactive; negative

Q: What does the source list for `CN(C)CCCN`?
A: mutagenic call [17]: inactive; negative; mutagenic call [4]: inactive; negative; mutagenic call [18]: inactive; negative; mutagenic call (Test System: AMES SALMONELLA TYPHIMURIUM, Strain/Indicator: TA98, Metabolic Activation: RAT, LIVER, S-9, PCB, Method: PREINCUBATION): inactive; negative; mutagenic call [19]: inactive; negative; mutagenic call [8]: inactive; negative; mutagenic call [20]: inactive; negative; mutagenic call (Test System: AMES SALMONELLA TYPHIMURIUM, Strain/Indicator: TA100, Metabolic Activation: RAT, LIVER, S-9, PCB, Method: PREINCUBATION): inactive; negative; mutagenic call [21]: inactive; negative; mutagenic call [12]: inactive; negative; mutagenic call [22]: inactive; negative; mutagenic call [23]: inactive; negative; mutagenic call [15]: inactive; negative; mutagenic call [24]: inactive; negative

Q: How did the mutagenic call [5] turn out when `CC(=O)OCCCCONC(=O)c1ccccc1` was run?
A: active; positive

Q: And the mutagenic call [9]?
A: active; positive

Q: And the mutagenic call (Test System: AMES SALMONELLA TYPHIMURIUM, Strain/Indicator: TA100, Metabolic Activation: RAT,S-9, AROCLOR, Method: STANDARD PLATE)?
A: active; positive

Q: How did the mutagenic call (Test System: AMES SALMONELLA TYPHIMURIUM, Strain/Indicator: TA98, Metabolic Activation: RAT, LIVER, S-9, AROCLOR 1254, Method: FLUCTUATION) turn out when `c1ccc2c(c1)c1ccccc1c1ccccc21` was run?
A: active; positive

Q: And the mutagenic call [25]?
A: active; positive
